# Read-outs that look alike come from different tables or passages of the source.
# What was measured:
# [1] = tested on: human lymphoblastic leukemic cells (CCRF-CEM); experiment: XTT-tetrazolium cytotoxicity assay, CCRF-CEM; type: cell-based; conditions: for IC50: Homo sapiens, 72 h
# Procedure: (§1) The effects of the compounds on cell growth were determined in all human tumor cells (i.e. T-cell acute lymphocytic leukemia CCRF-CEM), in a 72 h incubation, by XTT-tetrazolium assay, as described by Scudiero et al., Cancer Res. 1988, 48, 4827-4833. After the addition of phenazine methosulfate-XTT solution at 37° C. for 6 h, absorbance at 450 and 630 nm was detected on a microplate reader (EL 340; Bio-Tek Instruments Inc., Winooski, Vt.). Six to seven concentrations of each compound were used. The IC50 and dose-effect relationships of the compounds for antitumor activity were calculated by a median-effect plot (see, e.g., Chou et al. Adv. Enzyme Regul. 1984, 22, 27-55) using a computer program on an IBM-PC workstation (see, e.g., Chou et al. Dose-Effect Analysis with Microcomputers: Quantitation of ED50, LD50, Synergism, Antagonism, Low-Dose Risk, Receptor-Ligands Binding and Enzyme Kinetics; Biosoft: Cambridge, U.K., 1987).
# Topo II = experiment: Topo II-mediated relaxation of pRYG-DNA; type: biochemical
# [2] = tested on: human mammary carcinoma (MX-1) xenografts; experiment: MX-1 xenograft in nude mice; type: in vivo; conditions: for Average Body Weight: D11 (start of treatment, baseline weight)
# Procedure: (§2) Athymic nude mice bearing the nu/nu gene were used for human breast tumor MX-1 xenograft. Outbred Swiss-background mice were obtained from Charies River Breeding Laboratories. Male mice 8 weeks old or older weighing 22 g or more were used for most experiments. Drug was administrated via the tail vein by i.v. injection. Tumor volumes were assessed by measuring length×width×height (or width) by using caliper. Vehicle used was 20 μl DMSO in 180 μl saline. All animal studies were conducted in accordance with the guidelines of the National Institutes of Health Guide for the Care and Use of Animals and the protocol approved by the Memorial Sloan-Kettering Cancer Center's Institutional Animal Care and Use Committee.
# DNA = DNA binding observed in the Topo II relaxation comparison; conditions: seen in Topo II relaxation comparison
# CCRF-CEM/Taxol = experiment: XTT cytotoxicity assay, taxol-resistant subline; type: cell-based, human
# Procedure: as §1
# (§3) Data summarizing the growth inhibition of human lymphoblastic leukemic cells (CCRF-CEM) and its drug-resistant sublines (resistant to vinblastine and taxol, CCRF-CEM/VBL and CCRF-CEM/taxol, respectively) by compound 37 is shown in Table 4.
# HCT-116 = experiment: SRB cytotoxicity assay, solid tumor cells HCT-116; type: cell-based; conditions: Homo sapiens, HCT-116, 72 h, read-out: IC50 HCT-116
# CCRF-CEM/VBL = experiment: XTT cytotoxicity assay, vinblastine-resistant subline; type: cell-based, human
# Procedure: as §1, §3
# [3] = tested on: human T-cell lymphoblastic leukemic lymphoma xenografts (CCRF-CEM); experiment: CCRF-CEM xenograft in nude mice; type: in vivo
# Procedure: as §2
# Table 6 summarizes data related to the therapeutic effects and toxicity of compound 37 in nude mice bearing human T-cell leukemic lymphoma CCRF-CEM xenografts. About 70% of average tumor sized was reduced at the dose of 2 mg/kg (Q3D×5).
# A549 = experiment: SRB cytotoxicity assay, solid tumor cells A549; type: cell-based, human; conditions: for IC50: Homo sapiens, A549, SRB
# [4] = 3 mg/kg Q4Dx5 i.v., column D17, marked (D15)
# [5] = 3 mg/kg Q4Dx5 i.v., column D20, marked (D19)
# [6] = number in bracket, ratio of IC50's
structure (smiles),measurement,setting,value
"OCc1cc(Nc2c3ccccc3nc3ccccc23)cc(OCCN(CCCl)CCCl)c1 [Compound 37, (3-(Acridin-9-ylamino)-5-{2-[bis(2-chloroethyl)amino]ethoxy}phenyl)methanol]",cytotoxicity relative to AHMA,[1],about 79 fold
same,IC50,[1],7 nM
same,IC50,[1]; read-out: IC50 CCRF-CEM,9.5 ± 2.5 nM
same,Topo II-mediated relaxation of pRYG-DNA,Topo II,inhibited DNA relaxation
same,Average Body Weight,[2]; 3 mg/kg Q4Dx5 i.v.,30.1 gm
same,Average Body Weight Change,"[2]; 3 mg/kg Q4Dx5 i.v., D14",−3.5 gm
same,Average Body Weight Change,"[2]; 3 mg/kg Q4Dx5 i.v., D23",−7.2 gm
same,Average Tumor Size (T/C),"[2]; 3 mg/kg Q4Dx5 i.v., D23",0.01
same,Tumor free,"[2]; 3 mg/kg Q4Dx5 i.v., animals tumor free/total (D27, 28)",2/3
same,Average Body Weight Change,[2]; [4],−3.3 gm
same,Average Tumor Size (T/C),[2]; [4],0.26
same,Average Body Weight Change,[2]; [5],−4.7 gm
same,Average Tumor Size (T/C),[2]; [5],0.03
same,Average Body Weight Change,"[2]; 3 mg/kg Q4Dx5 i.v., column D26, marked (D27)",−8.8 gm
same,Toxicity (death),"[2]; 3 mg/kg Q4Dx5 i.v., deaths/total (D27, 28, 29)",3/3
same,mice becoming tumor-free,"[2]; 1-2 mg/kg (Q3DX7) or 3 mg/kg (Q4D×5), intravenous injection, n=3",66.7%
same,Average Body Weight,[2]; 1-2 mg/kg Q3Dx7 i.v.,28.3 gm
same,Average Body Weight Change,"[2]; 1-2 mg/kg Q3Dx7 i.v., D14",+1.2 gm
same,Average Body Weight Change,"[2]; 1-2 mg/kg Q3Dx7 i.v., D17",−1.4 gm
same,Average Tumor Size (T/C),"[2]; 1-2 mg/kg Q3Dx7 i.v., D17",0.37
same,Average Body Weight Change,"[2]; 1-2 mg/kg Q3Dx7 i.v., D20",−3.0 gm
same,Average Tumor Size (T/C),"[2]; 1-2 mg/kg Q3Dx7 i.v., D20",0.17
same,Average Body Weight Change,"[2]; 1-2 mg/kg Q3Dx7 i.v., D23",−3.0 gm
same,Average Tumor Size (T/C),"[2]; 1-2 mg/kg Q3Dx7 i.v., D23",0.14
same,Average Body Weight Change,"[2]; 1-2 mg/kg Q3Dx7 i.v., D26",−3.9 gm
same,Tumor free,"[2]; 1-2 mg/kg Q3Dx7 i.v., animals tumor free/total (D32.32)",2/3
same,Toxicity (death),"[2]; 1-2 mg/kg Q3Dx7 i.v., deaths/total",0/3
same,binding to DNA,DNA,binds relatively tightly to DNA
same,cross-resistance to taxol,CCRF-CEM/Taxol; CCRF-CEM/taxol vs CCRF-CEM,does not develop cross-resistance
same,IC50,"CCRF-CEM/Taxol; Homo sapiens, CCRF-CEM, 72 h, read-out: IC50 CCRF-CEM/Taxol",34 ± 13 nM
same,folds of resistance CCRF-CEM/Taxol vs CCRF-CEM parent cells,CCRF-CEM/Taxol; [6],1.3 ×
same,IC50,HCT-116,5.5 ± 1 nM
same,cross-resistance to vinblastine,CCRF-CEM/VBL; CCRF-CEM/VBL vs CCRF-CEM,does not develop cross-resistance
same,IC50,"CCRF-CEM/VBL; Homo sapiens, CCRF-CEM, 72 h, read-out: IC50 CCRF-CEM/VBL",7.5 nM
same,folds of resistance CCRF-CEM/VBL vs CCRF-CEM parent cells,CCRF-CEM/VBL; [6],0.53 ×
same,average tumor size reduced,[3]; 2 mg/kg (Q3D×5),About 70%
same,Average Body Weight,"[3]; 2 mg/kg Q3Dx5 i.v., D10 (start of treatment, baseline weight)",29.4 gm
same,Average Body Weight Change,"[3]; 2 mg/kg Q3Dx5 i.v., D13",−1.1 gm
same,Average Body Weight Change,"[3]; 2 mg/kg Q3Dx5 i.v., D16",−4.2 gm
same,Average Tumor Size (T/C),"[3]; 2 mg/kg Q3Dx5 i.v., D16",0.47
same,Average Body Weight Change,"[3]; 2 mg/kg Q3Dx5 i.v., D19",−3.3 gm
same,Average Tumor Size (T/C),"[3]; 2 mg/kg Q3Dx5 i.v., D19",0.34
same,Average Body Weight Change,"[3]; 2 mg/kg Q3Dx5 i.v., D22",−5.9 gm
same,Average Tumor Size (T/C),"[3]; 2 mg/kg Q3Dx5 i.v., D22",0.33
same,Average Body Weight Change,"[3]; 2 mg/kg Q3Dx5 i.v., D25",−6.8 gm
same,Average Tumor Size (T/C),"[3]; 2 mg/kg Q3Dx5 i.v., D25",0.34
same,Tumor free,"[3]; 2 mg/kg Q3Dx5 i.v., animals tumor free/total",0/3
same,Toxicity (death),"[3]; 2 mg/kg Q3Dx5 i.v., deaths/total",0/3
same,IC50,"A549; 72 hours incubation, read-out: IC50 A549",5.6 ± 1.2 nM
same,IC50,"A549; incubation for 3 hours, washed, then incubated for a total of 72 hours (footnote b), read-out: IC50 A549 after washing",5 nM
same,alteration of potency when drug washed away,A549; washed away after incubation for 24 h,no alteration of the potency

# — US20080176889A1, “9-anilinoacridine alkylating agents” (priority 2004, published 2008)
